Measurements: ChEMBL document CHEMBL4251700, “Novel Staphyloxanthin Inhibitors with Improved Potency against Multidrug Resistant Staphylococcus aureus” (ACS Med Chem Lett, 2018)
Residue numbers refer to the chain shown, from its start. Values belong to the molecule of their own block, whether it stands above or below them. The source made the active and inactive calls. The calls are words filed in the database; no cut-off is given here.

Columns and labels:
[1] = target: T1, 4,4'-diapophytoene desaturase (4,4'-diaponeurosporene-forming) (Staphylococcus aureus (strain Newman), UniProt O07855); assay: Inhibition of CrtN in Staphylococcus aureus Newman assessed as reduction in staphyloxanthin levels after 48 hrs by spectrophotometric method-based pigment inhibition assay; set-up: species or system Staphylococcus aureus subsp. aureus str. Newman
T1 sequence (O07855 whole entry): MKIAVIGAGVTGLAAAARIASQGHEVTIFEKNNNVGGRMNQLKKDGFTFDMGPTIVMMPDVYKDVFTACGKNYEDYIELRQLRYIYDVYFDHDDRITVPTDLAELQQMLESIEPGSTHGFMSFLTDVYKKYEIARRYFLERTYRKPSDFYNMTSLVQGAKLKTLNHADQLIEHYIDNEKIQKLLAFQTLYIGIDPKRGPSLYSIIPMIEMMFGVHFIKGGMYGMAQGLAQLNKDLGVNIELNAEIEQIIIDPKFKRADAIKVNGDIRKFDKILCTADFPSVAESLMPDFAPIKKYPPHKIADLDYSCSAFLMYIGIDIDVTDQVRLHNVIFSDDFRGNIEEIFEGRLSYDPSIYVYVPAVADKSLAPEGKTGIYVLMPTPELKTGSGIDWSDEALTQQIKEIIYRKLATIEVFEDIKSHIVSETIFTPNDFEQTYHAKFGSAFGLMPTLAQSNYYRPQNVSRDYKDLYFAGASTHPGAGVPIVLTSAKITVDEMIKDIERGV

[2] = Solubility of the compound in water at 10 mg measured after 24 hrs by HPLC method; format: physicochemical
[3] = target: Voltage-gated inwardly rectifying potassium channel KCNH2 (Homo sapiens, UniProt Q12809); assay: Inhibition of recombinant human ERG expressed in CHO cells at -80 mV holding potential measured after 3 minutes by automated whole cell patch clamp Qpatch method; format: cell-based
[4] = target: T1, 4,4'-diapophytoene desaturase (4,4'-diaponeurosporene-forming); assay: Inhibition of Staphylococcus aureus Newman […]-tagged CrtN expressed in Escherichia coli BL21(DE3))/pET28a::CrtN assessed as reduction in staphyloxanthin levels using diapophytoene as substrate after overnight incubation; set-up: species or system Staphylococcus aureus subsp. aureus str. Newman
[5] = target: T2, 4,4'-diapophytoene desaturase (4,4'-diaponeurosporene-forming) (Staphylococcus aureus (strain MW2), UniProt Q8NUQ6); assay: Inhibition of CrtN in methicillin-resistant Staphylococcus aureus LAC USA300 assessed as reduction in staphyloxanthin levels after 48 hrs by spectrophotometric method-based pigment inhibition assay; set-up: species or system Staphylococcus aureus subsp. aureus USA300
T2 sequence (Q8NUQ6 whole entry): T1 sequence (O07855 whole entry) with R500Q

[6] = target: T3, 4,4'-diapophytoene desaturase (4,4'-diaponeurosporene-forming) (Staphylococcus aureus (strain Mu50 / ATCC 700699), UniProt Q99R76); assay: Inhibition of CrtN in vancomycin-intermediate Staphylococcus aureus Mu50 assessed as reduction in staphyloxanthin levels after 48 hrs by spectrophotometric method-based pigment inhibition assay; set-up: species or system Staphylococcus aureus subsp. aureus Mu50
T3 sequence (Q99R76 whole entry): T1 sequence (O07855 whole entry)

[7] = target: T2, 4,4'-diapophytoene desaturase (4,4'-diaponeurosporene-forming); assay: Inhibition of CrtN in methicillin-resistant Staphylococcus aureus USA400 MW2 assessed as reduction in staphyloxanthin levels after 48 hrs by spectrophotometric method-based pigment inhibition assay; set-up: species or system Staphylococcus aureus subsp. aureus MW2
[8] = target: T1, 4,4'-diapophytoene desaturase (4,4'-diaponeurosporene-forming); assay: Inhibition of CrtN in linezolid-resistant Staphylococcus aureus NRS271 assessed as reduction in staphyloxanthin levels after 48 hrs by spectrophotometric method-based pigment inhibition assay
[9] = Cytotoxicity against human HepG2 cells after 72 hrs by CCK8 assay; format: cell-based
[10] = Cytotoxicity against HEK293T cells after 72 hrs by CCK8 assay; format: cell-based, HEK-293T; settings: human
Staphylococcus aureus [11] = assay: Antibacterial activity against linezolid-resistant Staphylococcus aureus NRS271 infected in BALB/c mouse assessed as reduction of bacterial burden in heart at 0.4 mg, ip bid administered at 24 hrs prior to bacterial infection dosed at 12 intervals for 4.5 days
Staphylococcus aureus [12] = assay: Antibacterial activity against vancomycin-intermediate Staphylococcus aureus Mu50 infected in BALB/c mouse assessed as reduction of bacterial burden in liver at 0.4 mg, ip bid administered at 12 hrs prior to bacterial infection dosed at 12 intervals for 4.5 days; format: functional, organism-based
Staphylococcus aureus [13] = assay: Antibacterial activity against vancomycin-intermediate Staphylococcus aureus Mu50 infected in BALB/c mouse assessed as reduction of bacterial burden in liver at 0.4 mg, ip bid for 3.5 days administered 6 hrs post bacterial infection measured 84 hrs post infection; format: functional, organism-based
Staphylococcus aureus [14] = assay: Antibacterial activity against linezolid-resistant Staphylococcus aureus NRS271 infected in BALB/c mouse assessed as reduction of bacterial burden in liver at 0.1 mg, ip bid administered at 12 hrs prior to bacterial infection dosed at 12 intervals for 4.5 days; format: functional, organism-based
Staphylococcus aureus [15] = assay: Antibacterial activity against vancomycin-intermediate Staphylococcus aureus Mu50 infected in BALB/c mouse assessed as reduction of bacterial burden in liver at 0.1 mg, ip bid for 3.5 days administered 6 hrs post bacterial infection measured 84 hrs post infection; format: functional, organism-based
Staphylococcus aureus [16] = assay: Antibacterial activity against linezolid-resistant Staphylococcus aureus NRS271 infected in BALB/c mouse assessed as reduction of bacterial burden in liver at 0.4 mg, ip bid administered at 12 hrs prior to bacterial infection dosed at 12 intervals for 4.5 days; format: functional, organism-based
Staphylococcus aureus [17] = assay: Antibacterial activity against linezolid-resistant Staphylococcus aureus NRS271 infected in BALB/c mouse assessed as reduction of bacterial burden in heart at 0.1 mg, ip bid administered at 24 hrs prior to bacterial infection dosed at 12 intervals for 4.5 days
Staphylococcus aureus [18] = assay: Antibacterial activity against vancomycin-intermediate Staphylococcus aureus Mu50 infected in BALB/c mouse assessed as reduction of bacterial burden in heart at 0.4 mg, ip bid for 3.5 days administered 6 hrs post bacterial infection measured 84 hrs post infection relative to control; format: functional
Staphylococcus aureus [19] = assay: Antibacterial activity against vancomycin-intermediate Staphylococcus aureus Mu50 infected in BALB/c mouse assessed as reduction of bacterial burden in heart at 0.1 mg, ip bid for 3.5 days administered 6 hrs post bacterial infection measured 84 hrs post infection relative to control; format: functional
Staphylococcus aureus [20] = assay: Antibacterial activity against vancomycin-intermediate Staphylococcus aureus Mu50 infected in BALB/c mouse assessed as reduction of bacterial burden in liver at 0.1 mg, ip bid administered at 12 hrs prior to bacterial infection dosed at 12 intervals for 4.5 days; format: functional, organism-based

Sequence of Voltage-gated inwardly rectifying potassium channel KCNH2 (Q12809 whole entry): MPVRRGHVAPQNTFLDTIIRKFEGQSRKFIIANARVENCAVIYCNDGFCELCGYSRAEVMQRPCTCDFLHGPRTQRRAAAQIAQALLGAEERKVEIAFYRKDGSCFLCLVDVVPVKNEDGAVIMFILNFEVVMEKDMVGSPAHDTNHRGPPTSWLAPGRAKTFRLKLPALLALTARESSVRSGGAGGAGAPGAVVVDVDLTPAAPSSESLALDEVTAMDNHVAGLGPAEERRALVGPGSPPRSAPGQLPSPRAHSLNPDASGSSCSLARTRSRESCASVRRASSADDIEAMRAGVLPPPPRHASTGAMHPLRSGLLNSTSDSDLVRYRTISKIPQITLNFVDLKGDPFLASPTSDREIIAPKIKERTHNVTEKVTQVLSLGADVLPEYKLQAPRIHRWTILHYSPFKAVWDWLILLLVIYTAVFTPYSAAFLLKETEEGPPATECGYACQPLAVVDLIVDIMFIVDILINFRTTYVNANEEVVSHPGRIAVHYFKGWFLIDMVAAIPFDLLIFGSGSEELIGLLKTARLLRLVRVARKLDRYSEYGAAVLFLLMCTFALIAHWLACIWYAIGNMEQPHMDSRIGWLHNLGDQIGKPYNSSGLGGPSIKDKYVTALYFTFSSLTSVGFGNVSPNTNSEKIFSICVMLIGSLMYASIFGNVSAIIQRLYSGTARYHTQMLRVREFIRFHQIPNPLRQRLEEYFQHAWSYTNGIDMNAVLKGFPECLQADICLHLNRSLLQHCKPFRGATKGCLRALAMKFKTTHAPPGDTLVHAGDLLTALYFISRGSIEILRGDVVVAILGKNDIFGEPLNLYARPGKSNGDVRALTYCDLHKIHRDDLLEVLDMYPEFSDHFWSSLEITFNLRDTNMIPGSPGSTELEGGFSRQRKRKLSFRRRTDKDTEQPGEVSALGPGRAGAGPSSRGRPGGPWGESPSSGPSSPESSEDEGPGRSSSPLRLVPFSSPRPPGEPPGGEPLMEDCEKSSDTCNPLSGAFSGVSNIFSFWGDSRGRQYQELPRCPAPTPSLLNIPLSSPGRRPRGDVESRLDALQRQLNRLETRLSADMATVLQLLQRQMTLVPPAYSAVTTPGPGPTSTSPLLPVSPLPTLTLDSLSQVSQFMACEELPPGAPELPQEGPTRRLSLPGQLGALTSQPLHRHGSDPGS

SMILES: Cc1cccc(/C=C/CN(C)Cc2ccc3c(c2)OCCO3)c1
IC50 [1]: 43.4 nM

SMILES: Cc1ccc(/C=C/CN(C)Cc2ccc3c(c2)OCCO3)cc1.Cl
solubility at 24 h [2]: 6500 µg/mL | IC50 [1]: 3.2 nM | IC50 [3]: 4600 nM

SMILES: C/C=C/CN(C)Cc1ccc2c(c1)OCCO2
IC50 [1]: > 1000 nM

solubility at 24 h [2]: 690 µg/mL
SMILES: CN(C/C=C/c1ccc(C(F)(F)F)cc1)Cc1ccc2c(c1)CCCC2.Cl

SMILES: CN(C/C=C/c1cccc(F)c1)Cc1ccc2c(c1)OCCO2
IC50 [1]: > 1000 nM

SMILES: CN(C/C=C/c1ccc(C(F)(F)F)cc1F)Cc1ccc2c(c1)OCCO2
IC50 [1]: 8.8 nM

SMILES: COc1cccc(/C=C/CN(C)Cc2ccc3c(c2)OCCO3)c1
IC50 [1]: > 1000 nM

SMILES: CN(C/C=C/c1ccccc1[N+](=O)[O-])Cc1ccc2c(c1)OCCO2
IC50 [1]: > 1000 nM

SMILES: CN(C/C=C/c1ccccc1C(F)(F)F)Cc1ccc2c(c1)OCCO2
IC50 [1]: > 1000 nM

SMILES: CN(C/C=C/c1ccc(Br)cc1)Cc1ccc2c(c1)OCCO2
IC50 [1]: 8.2 nM

SMILES: CN(C/C=C/C=C/C=C/c1ccc(C(F)(F)F)cc1)Cc1ccc2c(c1)OCCO2.Cl
IC50 [4]: 258 nM | solubility at 24 h [2]: 3300 µg/mL | IC50 [1]: 1.6 nM | IC50 [5]: 3.7 nM | IC50 [6]: 1.2 nM | IC50 [7]: 5.3 nM | IC50 [8]: 0.4 nM | IC50 [3]: 8700 nM

SMILES: CN(C/C=C/c1cccc([N+](=O)[O-])c1)Cc1ccc2c(c1)OCCO2
IC50 [1]: > 1000 nM

SMILES: COc1ccc(/C=C/CN(C)Cc2ccc3c(c2)CCCCC3)cc1.Cl
solubility at 24 h [2]: 4200 µg/mL | IC50 [5]: 7.7 nM | IC50 [7]: 7.1 nM

SMILES: C[C@@H]1[C@H](O)[C@@H](C)/C=C/C=C/C=C/C=C/C=C/C=C/C=C/[C@H](O[C@@H]2O[C@H](C)[C@@H](O)[C@H](N)[C@@H]2O)C[C@@H]2O[C@](O)(C[C@@H](O)C[C@@H](O)[C@H](O)CC[C@@H](O)C[C@@H](O)CC(=O)O[C@H]1C)C[C@H](O)[C@H]2C(=O)O [AMPHOTERICIN B]
CC50 at 72 h [9]: 37800 nM | CC50 at 72 h [10]: 27500 nM

SMILES: CN(C/C=C/c1cccc(Cl)c1)Cc1ccc2c(c1)OCCO2
IC50 [1]: 112 nM

SMILES: CN(C/C=C/c1ccccc1)Cc1ccc2c(c1)OCCO2
IC50 [1]: 371 nM

SMILES: CN(C/C=C/c1cccs1)Cc1ccc2c(c1)OCCO2
IC50 [1]: 221 nM

SMILES: COc1ccccc1/C=C/CN(C)Cc1ccc2c(c1)OCCO2
IC50 [1]: > 1000 nM

SMILES: CN(C/C=C/c1ccccc1F)Cc1ccc2c(c1)OCCO2
IC50 [1]: > 1000 nM

SMILES: CC(=O)NC[C@H]1CN(c2ccc(N3CCOCC3)c(F)c2)C(=O)O1
Activity (Staphylococcus aureus [11]): Active | Activity (Staphylococcus aureus [12]): Active | Activity (Staphylococcus aureus [13]): Active | Activity (Staphylococcus aureus [14]): Active | Activity (Staphylococcus aureus [15]): Active | Activity (Staphylococcus aureus [16]): Active | Activity (Staphylococcus aureus [17]): Active | Activity (Staphylococcus aureus [18]): Active | Activity (Staphylococcus aureus [19]): Active | Activity (Staphylococcus aureus [20]): Active

SMILES: CN(C/C=C/c1cccc(C(F)(F)F)c1)Cc1ccc2c(c1)OCCO2
IC50 [1]: > 1000 nM
